Assay results taken from the OPERA property sets (Mansouri et al. 2018).
Where a SMILES comes first, the peptide text is derived from it.

SMILES	logP
COc1cccc(NC(=O)OCCN2CCCCC2)c1	3.32
O=C(NS(=O)(=O)c1cnccc1NC1CCCCCC1)N1CCCCCC1	4.43
COC(=O)Cc1ccc(O)cc1	1.63
c1ccc(N2CCN(CCn3nnc4ccccc43)CC2)cc1	2.74
FC(F)(F)c1ccccc1CNc1[nH]cnc2ncnc1-2	3.04
C#CC(C)(C)NCC(O)CON=C(C1CC1)C1CC1 (stereo not given)	1.6
CC(=O)OCCOC(=O)C(C)c1cccc(C(=O)c2ccccc2)c1 (stereo not given)	3.1
CN1CCc2cccc(Cl)c2CC1	2.92
CC1(C)C2CCC(CO)C1C2 (stereo not given)	3.41
OCC1OC(Oc2ccc(F)cc2)C(O)C(O)C1O (stereo not given)	-0.42
CC(C)CC(Nc1ccc([N+](=O)[O-])cc1[N+](=O)[O-])C(=O)O (stereo not given)	3.25
CON(C)C(=O)c1cn2c(C)c(C)nc2c2c1CCC(c1ccccc1)O2 (stereo not given)	3.6
COc1cc2c(c(OC)c1OC)-c1ccc(O)c(=O)cc1C(N)CC2 (stereo not given)	0.74
CCOc1ccc(-n2nnnc2N)cc1	1.32
CC(=O)OCC1OC(n2ccc(=O)[nH]c2=O)C(OC(C)=O)C1OC(C)=O (stereo not given)	-0.36
Cc1csc(Cl)c1NC1=NCCN1	1.18
CC1CCC2OC2(C)C12CCC(C(C)(C)O)C2 (stereo not given)	2.7
O=c1[nH]c2cc(Cl)c(Cl)c([N+](=O)[O-])c2[nH]c1=O	0.21
CCCNCc1ccc(C)cc1	2.96
FC(F)(F)c1cccc(CNc2[nH]cnc3ncnc2-3)c1	3.08
CC(C)NCC(O)COc1ccc(-c2nc(C(C)C)c[nH]2)cc1 (stereo not given)	2.95
CSCCC(N)C(=O)NC(CC(C)C)C(=O)O (stereo not drawn) (H-Met-Leu-OH; configuration not given here)	-1.84
COc1ccc(CCNCC(O)COc2ccc(-c3nc(C(C)=O)c[nH]3)cc2)cc1OC (stereo not given)	2.7
OCC1OC(n2cnc3c(NCc4ccco4)ncnc32)C(O)C1O (stereo not given)	0.52
CCOP(=O)(OCC)C(C)(C)[N+]([O-])=Cc1cccnc1	0.41

SMILES	logP
CCCNC(=O)c1cccc2nc(N)nc(N)c12	0.83
Cc1c(C)c2cc(C)c3occc3c2oc1=O	3.23
CC(C(=O)OC1CCCCC1)S(=O)(=O)c1ccc([N+](=O)[O-])cc1 (stereo not given)	2.82
COC(=O)C=CCn1cc([N+](=O)[O-])nc1C	0.16
COc1cc2ncnc(Nc3cccc(Br)c3)c2cc1OC	3.49
Cc1c(C)c2ccc3occc3c2oc1=O	2.9
Nc1ccc(CNC(=O)C2CCCN2C(=O)C(Cc2ccc(Cl)c(Cl)c2)NS(=O)(=O)Cc2ccccc2)cn1 (stereo not given)	3.68
CC(=O)OCc1ccccn1	0.39
CC1(C)C=[N+]([O-])C(C)(C)C1	-0.15
Cc1cc(=O)n(C)c2c1cc(C)c1occ(C)c12	3.3
CC(=O)c1cc(F)c(Cl)cc1Cl	3.4
Cc1ccc(CO)c(C=NNC(=O)c2ccc(C(C)(C)C)cc2)c1O	4.73
OCCCCCNc1ncnc2c1ncn2C1OC(CO)C(O)C1O (stereo not given)	-0.24
CN1CC(O)N(C(=O)NC2CCCCCC2)C1=O (stereo not given)	2.29
O=c1ccc2ccc3occc3c2[nH]1	1.82
O=C(Cc1c(Cl)cc(Cl)cc1Cl)Oc1coc(CO)cc1=O	1.92
CC(=O)Nc1ccc(S(=O)(=O)Nc2cc(C)nc(C)n2)cc1	-0.14
CCN(CC)C(=O)COC(=O)c1cc(S(N)(=O)=O)c(Cl)cc1NCc1ccco1	2.45
CCCc1nc(Nc2ccccc2OC)nc(N2CCOCC2)n1	3.59
Cn1c([N+](=O)[O-])cnc1-c1ccc(F)cc1	1.83
Nc1nc(N)c2c(Br)cccc2n1	1.91
CC(C)CC(N)C(=O)NC(C(=O)NC(C(=O)O)C(C)C)C(C)C (stereo not drawn) (H-Leu-Val-Val-OH; configuration not given here)	-2.1
CNC1=NS(=O)N=C1NCCSCc1ccc(CN(C)C)o1 (stereo not given)	0.89
CCOC(=O)CCCn1cc([N+](=O)[O-])nc1C	0.58
COc1cccc2nc(N)nc(N)c12	1.18

SMILES	logP
CCCCNc1ccncc1S(=O)(=O)NC(=NC#N)NC(C)C	1.05
Cc1oc2nc3oc(=O)ccc3cc2c1C	1.97
CCCc1nc(N)nc(N2CCCCC2)n1	2.55
NC1CC(CO)N(c2cc3c(cc2F)c(=O)c(C(=O)O)cn3-c2ccc(F)cc2F)C1 (stereo not given)	-0.98
O=[N+]([O-])c1nccn1CC(O)C(O)CF (stereo not given)	-0.77
C=CC(=O)Oc1ccccc1	1.94
CC(C)NCC(O)COc1ccc(Cc2nc(Br)c[nH]2)cc1 (stereo not given)	2.2
CC(C)CNc1[nH]cnc2ncnc1-2	1.92
CCCCCCCCCCCCN(C)N=Nc1ccc(C(N)=O)cc1	6.58
CC(C)(C)NCC(O)CON=C(C1CC1)C1CC1 (stereo not given)	1.84
CC(=NNC(=O)c1ccc([N+](=O)[O-])cc1)c1cnccn1	2.1
CCCCC(=O)C(CCCCOc1c(C)cc(C)cc1[N+](=O)[O-])n1cncn1 (stereo not given)	3.9
O=C1N=C(N2CCCCC2)CN1c1ccc(Cl)cc1	2.3
Cc1nn(-c2cc(CC(Cl)C(=O)O)c(Cl)cc2F)c(=O)n1C(F)F (stereo not given)	3.36
O=C1c2cc(O)ccc2OCN1CCO[N+](=O)[O-]	1.63
CC(C)NC(=NC#N)NS(=O)(=O)c1cnccc1Nc1ccc(Cl)cc1	2.37
Clc1cccc(CNc2[nH]cnc3ncnc2-3)c1	2.89
Cc1c(C)c2cc3ccoc3c(C)c2oc1=O	3.25
CC(=O)NC(CCCN(Cc1ccccc1)C(=O)N(CCCl)N=O)C(=O)NCc1ccccc1 (stereo not given)	1.92
C#CCOc1noc2c1CNCC2	0.4
Nc1ccc(CNC(=O)C2CCCN2C(=O)C(N)C(C2CCCCC2)C2CCCCC2)cn1 (stereo not given)	4.61
CCC(C)C(NC(=O)CNC(=O)C(C)NC(=O)CNC(=O)C(N)Cc1ccccc1)C(=O)O (stereo not given) (H-FGAGI-OH; configuration not given here)	-1.87
Cc1ccc(CNc2ncnc3nc[nH]c23)cc1	2.66
CC(=O)Nc1ccc(S(=O)(=O)Nc2nc(C)c(C)o2)cc1	0.46
NC(Cc1ccccc1)C(=O)NC(Cc1ccc(O)cc1)C(=O)O (stereo not drawn) (H-Phe-Tyr-OH; configuration not given here)	-1.68

SMILES	logP
CC(C)(C)c1ccc(OCC2CN=C(N)O2)cc1 (stereo not given)	2.84
Cc1cccc(OCC2CN=C(N)O2)c1 (stereo not given)	1.75
O[C@@H](c1cc(C(F)(F)F)nc2c(C(F)(F)F)cccc12)[C@H]1CCCCN1	4.49
COc1cccc(C(O)C(C(=O)O)c2ccc(-c3ccccc3)cc2)c1 (stereo not given)	3.53
O=c1[nH]c(=O)n(Cc2ccc(Cl)cc2Cl)cc1F	1.96
CCCCNc1ncnc2c1ncn2C1OC(CO)C(O)C1O (stereo not given)	1.1
C=CCNC(=O)N(CCCC(NC(C)=O)C(=O)NCc1ccccc1)Cc1ccccc1 (stereo not given)	1.44
CCCC(=NOCC)C1=C(O)CC2(CCCCC2C)OC1=O (stereo not given)	3.9
CC(C)CC(NC(=O)CNC(=O)C(NC(=O)C(Cc1ccccc1)NC(=O)C(N)C(C)C)C(C)C)C(=O)O (stereo not given) (H-VFVGL-OH; configuration not given here)	-0.97
O=C(NP(=O)(N1CC1)N1CC1)c1ccccc1	0.81
Cn1c(=O)[nH]c2ncn(C)c2c1=O	-0.22
CCC(C)C(N)C(=O)N1CCCC1C(=O)NCC(=O)NC(C(=O)O)C(C)CC (stereo not given) (H-IPGI-OH; configuration not given here)	-1.69
Cc1nc2c3c(c(C(N)=O)cn2c1C)CCC(c1ccccc1)O3 (stereo not given)	3.5
CCCCCCCCCCCCCCc1ccccc1	9.95
O=C1c2ccccc2-c2nnc(-c3ccc(O)cc3)cc21	2.88
COc1cccc(C2CCCCC2=O)c1 (stereo not given)	2.42
Cc1ccc(Cc2c[nH]cn2)cc1C	2.72
CCC(C)C(N)C(=O)NC(C)C(=O)NC(C)C(=O)NC(C(=O)O)C(C)CC (stereo not given) (H-IAAI-OH; configuration not given here)	-2.82
COC(=O)c1c(Oc2nc(OC)cc(OC)n2)cccc1C(C)=NOCC=C(Cl)Cl	4.23
CC(C)C(N)C(=O)NCC(=O)NC(Cc1ccccc1)C(=O)NC(Cc1ccccc1)C(=O)O (stereo not given) (H-VGFF-OH; configuration not given here)	-0.51
CCCCCCCCNC(=O)N1C(=O)N(C)CC1O (stereo not given)	3.46
OC(CNCc1ccccc1)CON=C(C1CC1)C1CC1 (stereo not given)	2.08
CCOC(=O)Nc1ccc2cc3ccc4c(c3nc2c1)COCN4C(=O)OCC	3.12
CCCc1nc(NC(=O)c2ccccc2)nc(N2CCOCC2)n1	1.61
O=[N+]([O-])c1ccc(CSc2ncnc3c2ncn3C2OC(CO)C(O)C2O)cc1 (stereo not given)	0.54

SMILES	logP
O=c1cc(CBr)occ1O	0.61
Cc1cc2ccc(=O)oc2c2ccoc12	2.39
CCCCCCCOc1ccccc1NC(=O)OC(C)CN(CC)CC (stereo not given)	5.7
C=CCN(N=O)C(=O)N(CCCCC(NC(C)=O)C(=O)NCc1ccccc1)Cc1ccccc1 (stereo not given)	2.7
O=C1CCCc2nnc(-c3ccccc3)cc21	2.05
CCOC(=O)C1=C(C)NC(C)=C(C(=O)OC)C1c1ccccc1OCOC (stereo not given)	3.78
COC(=O)C(=Cc1cnc(SC(C)=O)n1C)C(=O)OC	-0.43
CN1CCN(C2=NC(=O)N(c3ccc(Cl)cc3)C2)CC1	2.2
Cc1c(C)c2occc2c2oc(=O)ccc12	2.84
O=c1cc(CCl)oc(Cl)c1O	0.95
Cc1nc2ccccc2c(=O)n1CC(=O)N1CCCCC1	1.27
Cc1[nH]c2ccccc2c1Cc1n[nH]c(=S)n1-c1ccccc1	2.55
CC(C)CC(NC(=O)C(CC(C)C)NC(=O)C(CC(C)C)NC(=O)C1CCCN1)C(=O)O (stereo not given) (H-PLLL-OH; configuration not given here)	-1.06
C=CC(=O)OCCCCCC	3.33
O=C1N=C(N2CCOCC2)CN1Cc1ccc(I)cc1	1.7
CC(C)C(Nc1ccc([N+](=O)[O-])cc1[N+](=O)[O-])C(=O)O (stereo not given)	2.88
CC(C)C(C)NC(CO)C(O)c1ccccc1 (stereo not given)	1.61
CCOC(=O)C1=C(C)NC(C)=C(C(=O)OC)C1c1cccc2c1OCCO2 (stereo not given)	3.57
CCCCCCCCCCNCCO	3.62
O=S(CCl)c1ccccc1 (stereo not given)	1.47
CC(C)CCCNc1[nH]cnc2ncnc1-2	3.06
CC(=O)NCCC(=O)NCc1c(O)c(=O)cc(C)n1C	-1.7
Cc1c(C)c2cc3c(C)coc3c(C)c2oc1=O	3.62
CN1CCN(Cc2cnccc2Cl)C1=N[N+](=O)[O-]	0.26
NC(=O)c1cccc(Cn2ccnc2)c1	-0.01
